Data from patent publication US20210343946A1, “INFRARED ABSORBERS, INFRARED ABSORBING/BLOCKING FILMS AND PHOTOELECTRIC DEVICES AND ORGANIC SENSORS AND ELECTRONIC DEVICES” (Samsung Electronics Co., Ltd., priority 2020, published 2021).

Legend:
[1] = Light absorption characteristics in a solution state (UV-Vis-NIR spectrometer); format: physicochemical; conditions: for UV-vis: λmax: CH2Cl2 Solution, in synthesis example; for λmax (nm) (solution): 1×10^−5 M
Method: The compounds according to Synthesis Examples 1 to 5 in dichloromethane, the compounds according to Comparative Synthesis Examples 1 and 2 in toluene, and the compound of Comparative Synthesis Example 3 in chloroform are respectively dissolved at a concentration of 1×10^−5 M to prepare solutions, and light absorption characteristics of the compounds in a solution state are evaluated. The light absorption characteristics are evaluated by using an UV-Vis-NIR spectrometer (UV-3600 Plus, Shimadzu Corp.) to measure a maximum absorption wavelength (λmax).

[2] = Light absorption characteristics in a thin film state (UV-Vis-NIR spectrometer); format: physicochemical; conditions: thin film spin-coated from chloroform on glass substrate
Method: In addition, the compounds of Synthesis Examples 1 to 5 are respectively dissolved in chloroform and coated on a glass substrate at 800 rpm for 60 seconds and at 400 rpm for 5 seconds with a spin coater, and the light absorption characteristics thereof in a thin film state are evaluated. The light absorption characteristics are evaluated by measuring a maximum absorption wavelength (λmax) by using a UV-Vis-NIR spectrometer (UV-3600 Plus, Shimadzu Corp.).

SMILES | UV-vis: λmax [1] | λmax (nm) (solution) ([1]; in dichloromethane) | λmax (nm) (thin film) [2] | λmax (nm) (solution) ([1]; in toluene)
CCCCCCOc1cc(-c2c3c(c(-c4cc(OCCCCCC)c(-c5cc6c(s5)c5sc(CCCCCC)cc5n6CCCCCC)s4)c4n[se]nc24)N=[Se]=N3)sc1-c1cc2c(s1)c1sc(CCCCCC)cc1n2CCCCCC [Synthesis Example 5] | 1376 nm | 1376 nm | 1285 nm | 
CCCCCCCCC1(CCCCCCCC)c2ccccc2-c2ccc(-c3ccc(-c4c5c(c(-c6ccc(-c7ccc8c(c7)C(CCCCCCCC)(CCCCCCCC)c7ccccc7-8)s6)c6nsnc46)N=S=N5)s3)cc21 [Comparative Synthesis Example 2, reference compound] |  |  |  | 848 nm
CCCCCCOc1cc(-c2c3c(c(-c4cc(OCCCCCC)c(-c5cc6c(s5)c5sc(CCCCCC)cc5n6CCCCCC)s4)c4nsnc24)N=S=N3)sc1-c1cc2c(s1)c1sc(CCCCCC)cc1n2CCCCCC [Synthesis Example 2] | 1114 nm | 1076 nm | 1120 nm | 
CCCCCCCCOc1ccc(N(c2ccc(OCCCCCCCC)cc2)c2ccc(-c3ccc(-c4c5c(c(-c6ccc(-c7ccc(N(c8ccc(OCCCCCCCC)cc8)c8ccc(OCCCCCCCC)cc8)cc7)s6)c6nsnc46)N=S=N5)s3)cc2)cc1 [Comparative Synthesis Example 1, reference compound] |  |  |  | 920 nm
CCCCCCOc1cc(-c2c3nsnc3c(-c3cc(OCCCCCC)c(-c4cc5c(s4)c4sc(CCCCCC)cc4n5CCCCCC)s3)c3nc4c5ccccc5c5ccccc5c4nc23)sc1-c1cc2c(s1)c1sc(CCCCCC)cc1n2CCCCCC [Synthesis Example 4] | 1020 nm | 1020 nm | 1058 nm | 
CCCCCCOc1cc(-c2c3c(c(-c4cc(OCCCCCC)c(-c5cc6c(s5)c5sc(CCCCCC)cc5n6CCCCCC)s4)c4nsnc24)N=[Se]=N3)sc1-c1cc2c(s1)c1sc(CCCCCC)cc1n2CCCCCC [Synthesis Example 1] | 1256 nm | 1256 nm | 1226 nm | 
CCCCCCOc1cc(-c2c3nsnc3c(-c3cc(OCCCCCC)c(-c4cc5c(s4)c4sc(CCCCCC)cc4n5CCCCCC)s3)c3nc4c5ncccc5c5cccnc5c4nc23)sc1-c1cc2c(s1)c1sc(CCCCCC)cc1n2CCCCCC [Synthesis Example 3] | 1143 nm | 1143 nm | 1166 nm | 
